Measured values as given in article PMC6941823, “A dispensable paralog of succinate dehydrogenase subunit C mediates standing resistance towards a subclass of SDHI fungicides in Zymoseptoria tritici” (PLoS Pathogens, 2019).
Like-named read-outs stand apart in the source and are kept apart here.

Columns and labels:
[1] = system: SQR (SDHC / altC) of IPO323 pTet::SDHC3 transformant, induced; assay: Succinate-quinone (SQR) SDHI sensitivity assay on purified mitochondria, IPO323 pTet::SDHC3 induced; format: biochemical, Zymoseptoria tritici; conditions: IPO323 pTet::SDHC3 transformant grown in the absence of doxycycline; mean of three ± SD
Procedure, shortened: (§1)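 Succinate:ubiquinone/DCPIP reductase inhibition measured on purified mitochondria from Zymoseptoria tritici strains carrying either a single C-subunit gene (ZtSDHC1, ZtSDHC1_A84I or ZtSDHC3) or both ZtSDHC1 and ZtSDHC3; pTet::SDHC3 transformant tested under repressed and induced conditions.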

[2] = system: Zymoseptoria tritici field and genetically modified strains; assay: Liquid culture assay for fungicide sensitivity determination; format: cell-based; conditions: Zymoseptoria tritici
Procedure, shortened: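 EC50s from liquid culture growth tests with field isolates and modified strains. Population monitoring used final concentrations 100 to 0.0001 mg.L^-1 in 10x steps (7 levels plus DMSO control); refined panel profiling used 0.5 mM to 0.47 nM in 4x steps (11 levels plus DMSO).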

[3] = molecular target: altC-SQR (altC) of D024 SDHC1 KO mitochondria (Zymoseptoria tritici, UniProt A0A1X7RQW2+F9X9V6+O42772); assay: Succinate-quinone (SQR) SDHI sensitivity assay on purified mitochondria, 06STD024 SDHC1 KO; format: biochemical; conditions: for RF (resistance factor), D024 SDHC1 KO (altC): IC50 ratio compared to IPO323 values; for IC50: mitochondria of 06STD024 ZtSDHC1 deletion mutant (pure altC-SQR), mean of three ± SD
Sequence of altC-SQR (altC) of D024 SDHC1 KO mitochondria (A0A1X7RQW2 36-181): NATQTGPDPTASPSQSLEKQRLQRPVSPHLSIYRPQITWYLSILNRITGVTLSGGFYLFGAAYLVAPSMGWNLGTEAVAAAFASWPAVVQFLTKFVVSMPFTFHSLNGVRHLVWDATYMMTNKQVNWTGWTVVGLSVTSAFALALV
Sequence of altC-SQR (altC) of D024 SDHC1 KO mitochondria (O42772 20-297): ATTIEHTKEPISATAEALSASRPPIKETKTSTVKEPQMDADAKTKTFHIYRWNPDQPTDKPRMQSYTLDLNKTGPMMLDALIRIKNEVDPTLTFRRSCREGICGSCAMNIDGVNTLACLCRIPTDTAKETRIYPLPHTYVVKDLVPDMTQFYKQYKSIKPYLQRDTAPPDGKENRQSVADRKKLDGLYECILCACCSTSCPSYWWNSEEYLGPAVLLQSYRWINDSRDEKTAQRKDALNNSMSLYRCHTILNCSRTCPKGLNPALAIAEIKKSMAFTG
Sequence of altC-SQR (altC) of D024 SDHC1 KO mitochondria (F9X9V6 1-193): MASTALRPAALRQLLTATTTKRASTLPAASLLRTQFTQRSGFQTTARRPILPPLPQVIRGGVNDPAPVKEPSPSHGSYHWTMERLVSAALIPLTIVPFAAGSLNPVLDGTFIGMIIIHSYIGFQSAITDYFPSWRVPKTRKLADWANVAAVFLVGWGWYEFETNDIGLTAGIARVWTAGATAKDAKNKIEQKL
Sequence of altC-SQR (altC) of D024 SDHC1 KO mitochondria (F9WWR1 41-643 partner): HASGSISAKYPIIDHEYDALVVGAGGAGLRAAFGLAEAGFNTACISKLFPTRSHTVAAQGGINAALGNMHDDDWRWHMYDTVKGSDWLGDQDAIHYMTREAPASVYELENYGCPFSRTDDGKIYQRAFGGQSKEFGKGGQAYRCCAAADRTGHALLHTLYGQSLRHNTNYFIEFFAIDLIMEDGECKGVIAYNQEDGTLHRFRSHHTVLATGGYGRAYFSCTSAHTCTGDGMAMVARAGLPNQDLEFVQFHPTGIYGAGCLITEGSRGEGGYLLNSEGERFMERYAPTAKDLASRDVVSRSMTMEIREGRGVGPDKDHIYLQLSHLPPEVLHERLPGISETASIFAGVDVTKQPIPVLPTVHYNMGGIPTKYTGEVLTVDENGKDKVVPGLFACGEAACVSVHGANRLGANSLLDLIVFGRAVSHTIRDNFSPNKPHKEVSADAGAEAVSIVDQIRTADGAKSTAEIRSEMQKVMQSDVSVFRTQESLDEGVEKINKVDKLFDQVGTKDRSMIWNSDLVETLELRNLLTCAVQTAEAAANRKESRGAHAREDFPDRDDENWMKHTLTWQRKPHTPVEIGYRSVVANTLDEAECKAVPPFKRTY
Procedure, shortened: as §1

[4] = system: Zymoseptoria tritici isolates; assay: Growth tests on solid agar at discriminatory fungicide concentrations; format: cell-based; conditions: AE agar
Description: Fig 6 Resistance to SHA-SDHIs in Z. tritici EU populations. […] Sensitivity data are sorted by genotype according to the presence of the ZtSDHC3 gene. ** p value of 0.0029 in Welch’s corrected unpaired t-test. (B) Solid agar growth of a collection of 93 Z. tritici isolates sampled in 2009 (same set as above). Individual strains from this collection are boxed and numbered 1 to 93. Boxes A and B correspond to reference resistant strains 06STD024 and 07STGB009 respectively. Box C corresponds to IPO323 reference sensitive isolate. The yellow framed boxes correspond to strains carrying the ZtSDHC3 gene. Yellow arrow designates strain 09STIR20.1 (number 78) carrying a non-functional alt-SDHC (frameshift, S6 Table).
A large scale spotting assay of 96 isolates (Fig 6) was performed using the V&P 96 floating pin tool VP408FP6 (V&P Scientific), equipped with flat tip FP6 pins of 1.58 mm diameter (resulting in approx. 0.4 μl transfer volume). Source cultures for cell spotting were grown in 100 μl YPD liquid medium in a 96 well flat bottom plate (Corning, 3370) at 18°C for 11 days (average cell density of 3.5·10^6/ml), then diluted 1:2x in fresh YPD medium and incubated for another 1.5 h before transfer with the pin tool (approx. 700 cells per spot) onto AE agar with or without fungicide. Plates were incubated at 20°C in the dark for up to 18 days. Smaller scale spotting assays (Figs 4 and 8) were performed using 5 days V8-agar plates inoculums adjusted to 2.10^6 spores.mL^-1 in water and diluted in steps of 3. 2μL of spore suspension was spotted on the plates, and the plates were incubated shielded from light at 21°C for 6 days.

[5] = molecular target: SQR of 06STD024 (SDHC / altC) mitochondria (Zymoseptoria tritici, UniProt A0A1X7RQW2+F9X9V6+F9XH52+O42772); assay: Succinate-quinone (SQR) SDHI sensitivity assay on purified mitochondria, 06STD024; format: biochemical; conditions: for RF (resistance factor), 06STD024 (SDHC / altC): IC50 ratio compared to IPO323 values; for IC50: mitochondria of field isolate 06STD024, mean of three ± SD
Sequence of SQR of 06STD024 (SDHC / altC) mitochondria (A0A1X7RQW2 36-181): as the sequence (A0A1X7RQW2 36-181) above
Sequence of SQR of 06STD024 (SDHC / altC) mitochondria (O42772 19-297): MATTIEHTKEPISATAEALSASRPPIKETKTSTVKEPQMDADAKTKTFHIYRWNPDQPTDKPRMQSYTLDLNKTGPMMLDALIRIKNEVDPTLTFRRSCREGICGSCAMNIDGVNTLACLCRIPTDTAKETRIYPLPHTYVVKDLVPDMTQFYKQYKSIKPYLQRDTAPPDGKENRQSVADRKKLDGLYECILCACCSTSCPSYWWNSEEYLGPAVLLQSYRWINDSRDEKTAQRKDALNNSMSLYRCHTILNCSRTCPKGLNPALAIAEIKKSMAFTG
Sequence of SQR of 06STD024 (SDHC / altC) mitochondria (F9X9V6 1-193): as the sequence (F9X9V6 1-193) above
Sequence of SQR of 06STD024 (SDHC / altC) mitochondria (F9XH52 44-187): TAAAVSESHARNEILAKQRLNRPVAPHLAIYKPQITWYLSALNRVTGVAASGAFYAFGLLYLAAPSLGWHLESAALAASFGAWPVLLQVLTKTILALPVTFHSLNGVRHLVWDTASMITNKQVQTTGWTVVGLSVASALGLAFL
Sequence of SQR of 06STD024 (SDHC / altC) mitochondria (F9WWR1 29-643 partner): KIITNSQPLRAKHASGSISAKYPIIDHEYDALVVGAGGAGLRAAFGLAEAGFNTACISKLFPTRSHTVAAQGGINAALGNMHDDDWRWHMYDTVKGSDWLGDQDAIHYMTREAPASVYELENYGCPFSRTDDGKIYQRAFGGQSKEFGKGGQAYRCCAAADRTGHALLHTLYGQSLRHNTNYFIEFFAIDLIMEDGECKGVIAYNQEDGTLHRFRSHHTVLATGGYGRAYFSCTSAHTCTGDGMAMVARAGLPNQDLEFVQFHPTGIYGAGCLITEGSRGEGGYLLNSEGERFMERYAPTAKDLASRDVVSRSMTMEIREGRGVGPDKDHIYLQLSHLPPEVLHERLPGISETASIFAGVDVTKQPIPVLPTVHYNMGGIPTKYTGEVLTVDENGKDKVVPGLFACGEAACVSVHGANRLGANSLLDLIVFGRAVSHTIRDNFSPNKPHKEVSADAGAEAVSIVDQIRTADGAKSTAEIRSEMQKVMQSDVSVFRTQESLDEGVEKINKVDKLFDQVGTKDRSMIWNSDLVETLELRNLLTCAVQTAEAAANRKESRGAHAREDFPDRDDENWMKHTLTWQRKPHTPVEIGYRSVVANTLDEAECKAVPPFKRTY
Procedure, shortened: as §1

[6] = molecular target: SQR (SDHC) of D024 SDHC3 KO mitochondria (Zymoseptoria tritici, UniProt F9X9V6+F9XH52+O42772); assay: Succinate-quinone (SQR) SDHI sensitivity assay on purified mitochondria, 06STD024 SDHC3 KO; format: biochemical; conditions: for RF (resistance factor), D024 SDHC3 KO (SDHC): IC50 ratio compared to IPO323 values; for IC50: mitochondria of 06STD024 ZtSDHC3 deletion mutant, mean of three ± SD
Sequence of SQR (SDHC) of D024 SDHC3 KO mitochondria (F9XH52 44-187): as the sequence (F9XH52 44-187) above
Sequence of SQR (SDHC) of D024 SDHC3 KO mitochondria (O42772 19-297): as the sequence (O42772 19-297) above
Sequence of SQR (SDHC) of D024 SDHC3 KO mitochondria (F9X9V6 1-193): as the sequence (F9X9V6 1-193) above
Sequence of SQR (SDHC) of D024 SDHC3 KO mitochondria (F9WWR1 29-643 partner): as the sequence (F9WWR1 29-643 partner) above
Procedure, shortened: (§2)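 Mitochondria purified from each strain were used for succinate:ubiquinone/DCPIP reductase assays, with suspensions adjusted to similar initial velocity (1 OD595nm hour^-1). Inhibitor was tested at 0.047 nM–50 μM in 4x steps (11 concentrations plus DMSO). IC50 came from non-linear fits of absorbance slopes (OD/min) against log concentration.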

[7] = molecular target: WT-SQR (SDHC), IPO323 mitochondria (Zymoseptoria tritici, UniProt F9X9V6+F9XH52+O42772); assay: Succinate-quinone (SQR) SDHI sensitivity assay on purified mitochondria, IPO323; format: biochemical
Procedure, shortened: as §2

[8] = read-out: EC50 (nM) Mean, strain 06STD024, liquid culture sensitivity
[9] = read-out: EC50 (nM) Mean, strain 07STGB009, liquid culture sensitivity
[10] = read-out: EC50 (nM) Mean, strain 09STD041, liquid culture sensitivity
[11] = read-out: EC50 (nM) Mean, strain 09STD053, liquid culture sensitivity
[12] = read-out: EC50 (nM) Mean, strain 09STF011, liquid culture sensitivity
[13] = read-out: EC50 (nM) Mean, strain 09STF037, liquid culture sensitivity
[14] = read-out: EC50 (nM) Mean, strain 09STF112, liquid culture sensitivity
[15] = read-out: EC50 (nM) Mean, strain 09STIR20.3, liquid culture sensitivity
[16] = read-out: EC50 (nM) Mean, strain Flu21 (SDHC1_A84I), liquid culture sensitivity
[17] = read-out: EC50 (nM) Mean, strain IPO323, liquid culture sensitivity
[18] = read-out: EC50 (nM) Mean, strain IPO94269, liquid culture sensitivity
[19] = read-out: EC50 (nM) Mean, strain KO_SDHC1_T1, liquid culture sensitivity
[20] = read-out: EC50 (nM) Mean, strain KO_SDHC1_T3, liquid culture sensitivity
[21] = read-out: EC50 (nM) Mean, strain KO_SDHC3_T4, liquid culture sensitivity
[22] = read-out: EC50 (nM) Mean, strain KO_SDHC3_T13, liquid culture sensitivity
[23] = read-out: EC50 (nM) Mean, strain pTet::SDHC3_I78A_T1, liquid culture sensitivity
[24] = read-out: EC50 (nM) Mean, strain pTet::SDHC3_I78A_T5, liquid culture sensitivity
[25] = read-out: EC50 (nM) Mean, strain pTet::SDHC3_I78A_T15, liquid culture sensitivity
[26] = read-out: EC50 (nM) Mean, strain pTet::SDHC3_I78A_T35, liquid culture sensitivity
[27] = read-out: EC50 (nM) Mean, strain pTet::SDHC3_T1, liquid culture sensitivity
[28] = read-out: EC50 (nM) Mean, strain pTet::SDHC3_T2, liquid culture sensitivity
[29] = read-out: EC50 (nM) Mean, strain pTet::SDHC3_T3, liquid culture sensitivity
[30] = read-out: EC50 (nM) Mean, strain pTet::SDHC3_T7, liquid culture sensitivity

CON(C(=O)c1cn(C)nc1C(F)F)[C@@H](C)Cc1c(Cl)cc(Cl)cc1Cl [Pydiflumetofen]
IC50 [1]: 0.0009 ± 0.0003 µM | EC50 [2, 8]: 28.2 nM | EC50 [2, 9]: 24.5 nM | EC50 [2, 10]: 19.8 nM | EC50 [2, 11]: 6.4 nM | EC50 [2, 12]: 17.8 nM | EC50 [2, 13]: 8.1 nM | EC50 [2, 14]: 18.7 nM | EC50 [2, 15]: 8.1 nM | EC50 [2, 16]: 163 nM | EC50 [2, 17]: 4.5 nM | EC50 [2, 18]: 4.7 nM | EC50 [2, 19]: 377 nM | EC50 [2, 20]: 230 nM | EC50 [2, 21]: 5.1 nM | EC50 [2, 22]: 5.6 nM | EC50 [2, 23]: 4.8 nM | EC50 [2, 24]: 6 nM | EC50 [2, 25]: 4.9 nM | EC50 [2, 26]: 2.9 nM | EC50 [2, 27]: 164 nM | EC50 [2, 28]: 160 nM | EC50 [2, 29]: 108 nM | EC50 [2, 30]: 183 nM | RF (resistance factor), D024 SDHC1 KO (altC) [3]: 4.9 | RF (resistance factor), D024 SDHC1 KO (altC) ([3]; listed as pydiflumetofen): 6 | IC50 [3]: 0.0015 ± 0.0004 µM | Growth phenotype on SDHI-amended plate ([4]; strain 06STD024, pydiflumetofen 0.1 mg.L^-1, 18 DPI (procedure of Fig 6)): Weak | Growth phenotype on SDHI-amended plate ([4]; strain 06STD024, pydiflumetofen 0.1 mg.L^-1, 18 DPI (procedure of Fig 6), listed as pydiflumetofen): weak growth | Growth phenotype on SDHI-amended plate ([4]; strain 07STGB009, pydiflumetofen 0.1 mg.L^-1, 18 DPI (procedure of Fig 6)): Weak | Growth phenotype on SDHI-amended plate ([4]; strain 07STGB009, pydiflumetofen 0.1 mg.L^-1, 18 DPI (procedure of Fig 6), listed as pydiflumetofen): weak growth | Growth phenotype on SDHI-amended plate ([4]; strain 09STD041, pydiflumetofen 0.1 mg.L^-1, 18 DPI (procedure of Fig 6)): Very weak | Growth phenotype on SDHI-amended plate ([4]; strain 09STD053, pydiflumetofen 0.1 mg.L^-1, 18 DPI (procedure of Fig 6)): No | Growth phenotype on SDHI-amended plate ([4]; strain 09STF011, pydiflumetofen 0.1 mg.L^-1, 18 DPI (procedure of Fig 6)): Weak | Growth phenotype on SDHI-amended plate ([4]; strain 09STF037, pydiflumetofen 0.1 mg.L^-1, 18 DPI (procedure of Fig 6)): Very weak | Growth phenotype on SDHI-amended plate ([4]; strain 09STF112, pydiflumetofen 0.1 mg.L^-1, 18 DPI (procedure of Fig 6)): Very weak | Growth phenotype on SDHI-amended plate ([4]; strain 09STIR20.3, pydiflumetofen 0.1 mg.L^-1, 18 DPI (procedure of Fig 6)): Very weak | Growth phenotype on SDHI-amended plate ([4]; strain IPO323, pydiflumetofen 0.1 mg.L^-1, 18 DPI (procedure of Fig 6)): No | Growth phenotype on SDHI-amended plate ([4]; strain IPO94269, pydiflumetofen 0.1 mg.L^-1, 18 DPI (procedure of Fig 6)): No | RF (resistance factor), 06STD024 (SDHC / altC) [5]: 4.6 | IC50 [5]: 0.0014 ± 5e-05 µM | RF (resistance factor), D024 SDHC3 KO (SDHC) [6]: 1.1 | IC50 [6]: 0.0003 ± 7e-05 µM | IC50 [7]: 0.0003 ± 4e-05 µM

O=C(NCCc1ncc(C(F)(F)F)cc1Cl)c1ccccc1C(F)(F)F [Fluopyram]
IC50 [1]: 0.547 ± 0.0688 µM | EC50 [2, 8]: 9360 nM | EC50 [2, 9]: 10900 nM | EC50 [2, 10]: 1370 nM | EC50 [2, 11]: 558 nM | EC50 [2, 12]: 3570 nM | EC50 [2, 13]: 461 nM | EC50 [2, 14]: 2890 nM | EC50 [2, 15]: 419 nM | EC50 [2, 16]: 4580 nM | EC50 [2, 17]: 222 nM | EC50 [2, 18]: 147 nM | EC50 [2, 19]: 25600 nM | EC50 [2, 20]: 21200 nM | EC50 [2, 21]: 350 nM | EC50 [2, 22]: 351 nM | EC50 [2, 23]: 354 nM | EC50 [2, 24]: 818 nM | EC50 [2, 25]: 552 nM | EC50 [2, 26]: 143 nM | EC50 [2, 27]: 16000 nM | EC50 [2, 28]: 14300 nM | EC50 [2, 29]: 6750 nM | EC50 [2, 30]: 24500 nM | EC50 ([2]; read-out: Fluopyram EC50 in liquid culture, panel of ZtSDHC3 containing isolates, field isolates collected in 2009 carrying ZtSDHC3, from sensitive to resistant): 0.3 to 3.2 mg/L | RF (resistance factor), D024 SDHC1 KO (altC) [3]: 93.4 | RF (resistance factor), D024 SDHC1 KO (altC) ([3]; listed as fluopyram): ~100 | IC50 [3]: 1.16 ± 0.201 µM | Growth phenotype on SDHI-amended plate ([4]; strain 06STD024, fluopyram 5 mg.L^-1, 18 DPI (procedure of Fig 6)): Very strong | Growth phenotype on SDHI-amended plate ([4]; strain 07STGB009, fluopyram 5 mg.L^-1, 18 DPI (procedure of Fig 6)): Very strong | Growth phenotype on SDHI-amended plate ([4]; strain 09STD041, fluopyram 5 mg.L^-1, 18 DPI (procedure of Fig 6)): Weak | Growth phenotype on SDHI-amended plate ([4]; strain 09STD053, fluopyram 5 mg.L^-1, 18 DPI (procedure of Fig 6)): Weak | Growth phenotype on SDHI-amended plate ([4]; strain 09STF011, fluopyram 5 mg.L^-1, 18 DPI (procedure of Fig 6)): Moderate | Growth phenotype on SDHI-amended plate ([4]; strain 09STF037, fluopyram 5 mg.L^-1, 18 DPI (procedure of Fig 6)): Very weak | Growth phenotype on SDHI-amended plate ([4]; strain 09STF112, fluopyram 5 mg.L^-1, 18 DPI (procedure of Fig 6)): Strong | Growth phenotype on SDHI-amended plate ([4]; strain 09STIR20.3, fluopyram 5 mg.L^-1, 18 DPI (procedure of Fig 6)): Very weak | Growth phenotype on SDHI-amended plate ([4]; strain IPO323, fluopyram 5 mg.L^-1, 18 DPI (procedure of Fig 6)): No | Growth phenotype on SDHI-amended plate ([4]; strain IPO94269, fluopyram 5 mg.L^-1, 18 DPI (procedure of Fig 6)): No | RF (resistance factor), 06STD024 (SDHC / altC) [5]: 111.3 | IC50 [5]: 1.39 ± 0.522 µM | RF (resistance factor), D024 SDHC3 KO (SDHC) [6]: 0.8 | IC50 [6]: 0.0101 ± 0.002 µM | IC50 [7]: 0.0125 ± 0.002 µM
